Source: ChEMBL document CHEMBL1201862, “PubChem BioAssay data set” (2004)
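Five compound concentrations were applied to cells in 96-well plates for 48 hours; endpoints were derived by simple linear interpolation of the resulting dose-response curve. GI50: concentration for 50% inhibition of growth.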 The source made the active and inactive calls. No stated cut-off is given here; in the data, active = GI50 up to about 1.1 µM and inactive = higher.

Columns and labels:
Test in all cases: DTP human tumour cell line panel, 48 h
786-0 = test system: 786-0
A498 = test system: A498
A549 = test system: A549
ACHN = test system: ACHN
BT-549 = test system: BT-549
CAKI-1 = test system: CAKI-1
CCRF-CEM = test system: CCRF-CEM
COLO 205 = test system: COLO 205
DU-145 = test system: DU-145
EKVX = test system: EKVX
HCT-116 = test system: HCT-116
HCT-15 = test system: HCT-15
HL-60 = test system: HL-60
HOP-62 = test system: HOP-62
HOP-92 = test system: HOP-92
HT-29 = test system: HT-29
IGROV-1 = test system: IGROV-1
K562 = test system: K562
KM12 = test system: KM12
LOX IMVI = test system: LOX IMVI
M14 = test system: M14
MCF7 = test system: MCF7
MDA-MB-231 = test system: MDA-MB-231
MDA-MB-435 = test system: MDA-MB-435
MDA-N = test system: MDA-N
MOLT-4 = test system: MOLT-4
Malme-3M = test system: Malme-3M
NCI-H226 = test system: NCI-H226
NCI-H23 = test system: NCI-H23
NCI-H460 = test system: NCI-H460
NCI-H522 = test system: NCI-H522
NCI/ADR-RES = test system: NCI/ADR-RES
OVCAR-3 = test system: OVCAR-3
OVCAR-4 = test system: OVCAR-4
OVCAR-5 = test system: OVCAR-5
OVCAR-8 = test system: OVCAR-8
PC-3 = test system: PC-3
RPMI-8226 = test system: RPMI-8226
SF-268 = test system: SF-268
SF-295 = test system: SF-295
SF-539 = test system: SF-539
SK-MEL-28 = test system: SK-MEL-28
SK-MEL-2 = test system: SK-MEL-2
SK-MEL-5 = test system: SK-MEL-5
SK-OV-3 = test system: SK-OV-3
SN12C = test system: SN12C
SNB-19 = test system: SNB-19
SNB-75 = test system: SNB-75
SR = test system: SR
SW-620 = test system: SW-620
T47D = test system: T47D
TK-10 = test system: TK-10
U-251 = test system: U-251
UACC-257 = test system: UACC-257
UACC-62 = test system: UACC-62
Hs-578T = test system: Hs-578T
UO-31 = test system: UO-31
HCC 2998 = test system: HCC 2998
RXF 393 = test system: RXF 393

Measured: GI50

COC(=O)C[C@@H]1C(C)(C)[C@@H]2O[C@@]34C[C@@H]2C(=O)[C@]1(C)[C@H]3CC[C@@]1(C)[C@H](c2ccoc2)OC(=O)C[C@]14O
> 100 µM: HCT-15
inactive: 786-0 > 100 µM | A498 > 100 µM | A549 > 100 µM | ACHN > 100 µM | BT-549 > 100 µM | CAKI-1 > 100 µM | CCRF-CEM > 100 µM | COLO 205 > 100 µM | DU-145 > 100 µM | EKVX > 100 µM | HCT-116 > 100 µM | HL-60 > 100 µM | HOP-62 > 100 µM | HOP-92 > 100 µM | HT-29 > 100 µM | IGROV-1 > 100 µM | K562 > 100 µM | KM12 > 100 µM | LOX IMVI > 100 µM | M14 > 100 µM | MCF7 > 100 µM | MDA-MB-231 > 100 µM | MDA-MB-435 > 100 µM | MDA-N > 100 µM | MOLT-4 > 100 µM | Malme-3M > 100 µM | NCI-H226 > 100 µM | NCI-H23 > 100 µM | NCI-H460 > 100 µM | NCI-H522 > 100 µM | NCI/ADR-RES > 100 µM | OVCAR-3 > 100 µM | OVCAR-4 > 100 µM | OVCAR-5 > 100 µM | OVCAR-8 > 100 µM | PC-3 > 100 µM | RPMI-8226 > 100 µM | SF-268 > 100 µM | SF-295 > 100 µM | SF-539 > 100 µM | SK-MEL-28 > 100 µM | SK-MEL-2 > 100 µM | SK-MEL-5 > 100 µM | SK-OV-3 > 100 µM | SN12C > 100 µM | SNB-19 71.6 µM | SNB-75 > 100 µM | SR > 100 µM | SW-620 > 100 µM | T47D > 100 µM | TK-10 > 100 µM | U-251 > 100 µM | UACC-257 > 100 µM | UACC-62 > 100 µM

CCOC(=O)c1c(SCC#N)n(-c2ccccc2)c(=S)n(-c2ccccc2)c1=O
25.8 µM: HCT-15
inactive: 786-0 53.5 µM | A549 39.4 µM | ACHN 28.1 µM | BT-549 36.1 µM | CAKI-1 > 100 µM | CCRF-CEM 13.5 µM | COLO 205 61.7 µM | DU-145 > 100 µM | EKVX 36.3 µM | HCT-116 43.9 µM | HL-60 55.6 µM | HOP-62 88.1 µM | HOP-92 43.9 µM | HT-29 41.2 µM | Hs-578T 28.1 µM | IGROV-1 30.8 µM | K562 18.2 µM | KM12 47 µM | LOX IMVI 14.7 µM | M14 > 100 µM | MCF7 37.8 µM | MDA-MB-435 38.7 µM | MDA-N 82.8 µM | MOLT-4 9.73 µM | Malme-3M 39.2 µM | NCI-H226 38.4 µM | NCI-H23 45.7 µM | NCI-H460 34.2 µM | NCI-H522 34.4 µM | NCI/ADR-RES 35.3 µM | OVCAR-3 33.7 µM | OVCAR-4 40.7 µM | OVCAR-5 > 100 µM | OVCAR-8 38.5 µM | PC-3 18.8 µM | RPMI-8226 35.5 µM | SF-268 55.8 µM | SF-295 32.1 µM | SK-MEL-28 57.9 µM | SK-MEL-2 39.5 µM | SK-MEL-5 27 µM | SK-OV-3 35.9 µM | SN12C 32.4 µM | SNB-19 37.8 µM | SNB-75 25.8 µM | SR 44 µM | SW-620 29.9 µM | T47D 44 µM | TK-10 > 100 µM | U-251 33 µM | UACC-257 61.2 µM | UACC-62 23.3 µM | UO-31 37.5 µM

COc1ccc2c(c1)CC1COc3cc(OC)ccc3C1O2 (stereo not given)
inactive: 786-0 38.1 µM | A498 > 100 µM | A549 > 100 µM | BT-549 44.8 µM | CAKI-1 > 100 µM | CCRF-CEM > 100 µM | COLO 205 > 100 µM | DU-145 > 100 µM | EKVX > 100 µM | HCC 2998 > 100 µM | HCT-116 > 100 µM | HOP-62 > 100 µM | HOP-92 > 100 µM | HT-29 65.3 µM | IGROV-1 > 100 µM | KM12 > 100 µM | LOX IMVI > 100 µM | M14 > 100 µM | MCF7 > 100 µM | MDA-MB-231 > 100 µM | MDA-MB-435 > 100 µM | MDA-N > 100 µM | MOLT-4 > 100 µM | Malme-3M > 100 µM | NCI-H226 23 µM | NCI-H23 > 100 µM | NCI-H522 55 µM | NCI/ADR-RES 72.6 µM | OVCAR-3 > 100 µM | OVCAR-5 > 100 µM | OVCAR-8 71.8 µM | PC-3 79.8 µM | RPMI-8226 > 100 µM | SF-268 52.5 µM | SF-295 77.3 µM | SF-539 > 100 µM | SK-MEL-2 > 100 µM | SK-MEL-5 72.3 µM | SK-OV-3 > 100 µM | SN12C > 100 µM | SR > 100 µM | SW-620 > 100 µM | T47D > 100 µM | TK-10 > 100 µM | U-251 36.6 µM | UACC-257 > 100 µM | UACC-62 > 100 µM | UO-31 > 100 µM
> 100 µM: HCT-15

C/C=C1\C(=O)O[C@H]2C/C(C)=C/CC/C(C)=C/CC[C@@]3(C)O[C@@H]3C[C@@H]12
54.3 µM: HCT-15
inactive: 786-0 > 100 µM | A498 > 100 µM | A549 > 100 µM | ACHN > 100 µM | BT-549 69.5 µM | CAKI-1 > 100 µM | CCRF-CEM 35 µM | COLO 205 > 100 µM | DU-145 > 100 µM | EKVX > 100 µM | HCC 2998 > 100 µM | HCT-116 > 100 µM | HL-60 52 µM | HOP-62 > 100 µM | HT-29 > 100 µM | IGROV-1 61.1 µM | K562 > 100 µM | KM12 > 100 µM | M14 > 100 µM | MCF7 > 100 µM | MDA-MB-231 > 100 µM | MDA-MB-435 > 100 µM | MDA-N > 100 µM | MOLT-4 95.1 µM | Malme-3M > 100 µM | NCI-H460 46.1 µM | NCI/ADR-RES > 100 µM | OVCAR-3 > 100 µM | OVCAR-5 > 100 µM | OVCAR-8 > 100 µM | PC-3 > 100 µM | RPMI-8226 74.1 µM | RXF 393 > 100 µM | SF-268 > 100 µM | SF-295 > 100 µM | SF-539 > 100 µM | SK-MEL-28 > 100 µM | SK-MEL-2 > 100 µM | SK-MEL-5 > 100 µM | SK-OV-3 > 100 µM | SN12C > 100 µM | SNB-19 36.8 µM | SNB-75 > 100 µM | SR 37.8 µM | SW-620 > 100 µM | T47D > 100 µM | TK-10 > 100 µM | U-251 85.5 µM | UACC-257 > 100 µM | UACC-62 > 100 µM | UO-31 > 100 µM
